Data from US5288720A, “Angiotensin II receptor blocking 2,3,6 substituted quinazolinones” (American Cyanamid Company, priority 1993, dated 1994).

Tested on: ANGIOTENSIN II VASOPRESSOR RESPONSE
Assay: AII Challenge: blockade of angiotensin II vasopressor response in conscious SHR
Assay type: in vivo, rat (Conscious Male Okamoto-Aoki SHR)
Settings: SHR n=2
In short: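 Conscious male Okamoto-Aoki SHR (16-20 weeks, ~330 g) cannulated in aorta and vena cava under local procaine; angiotensin II (human) 0.05 and 0.1 ug/kg i.v. given before and at 30-300 min after test compound i.v., i.p. or orally. Rise in systolic pressure (mmHg) expressed as % blockade versus each rat's predose response.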

[1] = 3 mg/kg i.v., AII 0.05 mcg/kg IV, 30 min post dose
[2] = 3 mg/kg i.v., AII 0.05 mcg/kg IV, 60 min post dose
[3] = 3 mg/kg i.v., AII 0.05 mcg/kg IV, 90 min post dose
[4] = 3 mg/kg i.v., AII 0.05 mcg/kg IV, 120 min post dose
[5] = 3 mg/kg i.v., AII 0.05 mcg/kg IV, 180 min post dose
[6] = 3 mg/kg i.v., AII 0.05 mcg/kg IV, 240 min post dose
[7] = 3 mg/kg i.v., AII 0.05 mcg/kg IV, 300 min post dose
[8] = 3 mg/kg i.v., AII 0.1 mcg/kg IV, 30 min post dose
[9] = 3 mg/kg i.v., AII 0.1 mcg/kg IV, 60 min post dose
[10] = 3 mg/kg i.v., AII 0.1 mcg/kg IV, 90 min post dose
[11] = 3 mg/kg i.v., AII 0.1 mcg/kg IV, 120 min post dose
[12] = 3 mg/kg i.v., AII 0.1 mcg/kg IV, 180 min post dose
[13] = 3 mg/kg i.v., AII 0.1 mcg/kg IV, 240 min post dose
[14] = 3 mg/kg i.v., AII 0.1 mcg/kg IV, 300 min post dose
[15] = 3 mg/kg p.o., AII 0.05 mcg/kg IV, 30 min post dose
[16] = 3 mg/kg p.o., AII 0.05 mcg/kg IV, 60 min post dose
[17] = 3 mg/kg p.o., AII 0.05 mcg/kg IV, 90 min post dose
[18] = 3 mg/kg p.o., AII 0.05 mcg/kg IV, 120 min post dose
[19] = 3 mg/kg p.o., AII 0.05 mcg/kg IV, 180 min post dose
[20] = 3 mg/kg p.o., AII 0.05 mcg/kg IV, 240 min post dose
[21] = 3 mg/kg p.o., AII 0.1 mcg/kg IV, 30 min post dose
[22] = 3 mg/kg p.o., AII 0.1 mcg/kg IV, 60 min post dose
[23] = 3 mg/kg p.o., AII 0.1 mcg/kg IV, 90 min post dose
[24] = 3 mg/kg p.o., AII 0.1 mcg/kg IV, 120 min post dose
[25] = 3 mg/kg p.o., AII 0.1 mcg/kg IV, 180 min post dose
[26] = 3 mg/kg p.o., AII 0.1 mcg/kg IV, 240 min post dose
[27] = 10 mg/kg p.o., AII 0.05 mcg/kg IV, 30 min post dose
[28] = 10 mg/kg p.o., AII 0.05 mcg/kg IV, 60 min post dose
[29] = 10 mg/kg p.o., AII 0.05 mcg/kg IV, 90 min post dose
[30] = 10 mg/kg p.o., AII 0.05 mcg/kg IV, 120 min post dose
[31] = 10 mg/kg p.o., AII 0.05 mcg/kg IV, 180 min post dose
[32] = 10 mg/kg p.o., AII 0.05 mcg/kg IV, 240 min post dose
[33] = 10 mg/kg p.o., AII 0.05 mcg/kg IV, 300 min post dose
[34] = 10 mg/kg p.o., AII 0.1 mcg/kg IV, 30 min post dose
[35] = 10 mg/kg p.o., AII 0.1 mcg/kg IV, 60 min post dose
[36] = 10 mg/kg p.o., AII 0.1 mcg/kg IV, 90 min post dose
[37] = 10 mg/kg p.o., AII 0.1 mcg/kg IV, 120 min post dose
[38] = 10 mg/kg p.o., AII 0.1 mcg/kg IV, 180 min post dose
[39] = 10 mg/kg p.o., AII 0.1 mcg/kg IV, 240 min post dose
[40] = 10 mg/kg p.o., AII 0.1 mcg/kg IV, 300 min post dose

CCCCc1nc2ccc(C(O)C3CCN(C)C3=O)cc2c(=O)n1Cc1ccc(-c2ccccc2-c2nn[nH]n2)cc1 (single isomer, unassigned; isomer 2) [Example 33, 2-Butyl-6-[hydroxy(1-methyl-2-oxo-3-pyrrolidinyl)methyl-3-[[2'-(1H-tetrazol-5-yl)[1,1'-biphenyl]-4-yl]methyl]-4(3H)-quinazolinone isomer 2]
% Inhibition of AII vasopressor response [1]: 100%
Average Change (systolic blood pressure response to AII) [1]: 0 mmHg
% Inhibition of AII vasopressor response [2]: 100%
Average Change (systolic blood pressure response to AII) [2]: 0 mmHg
% Inhibition of AII vasopressor response [3]: 100%
Average Change (systolic blood pressure response to AII) [3]: 0 mmHg
% Inhibition of AII vasopressor response [4]: 100%
Average Change (systolic blood pressure response to AII) [4]: 0 mmHg
% Inhibition of AII vasopressor response [5]: 81%
Average Change (systolic blood pressure response to AII) [5]: 7.5 mmHg
% Inhibition of AII vasopressor response [6]: 56%
Average Change (systolic blood pressure response to AII) [6]: 17.5 mmHg
% Inhibition of AII vasopressor response [7]: 44%
Average Change (systolic blood pressure response to AII) [7]: 22.5 mmHg
% Inhibition of AII vasopressor response [8]: 86%
Average Change (systolic blood pressure response to AII) [8]: 7.5 mmHg
% Inhibition of AII vasopressor response [9]: 89%
Average Change (systolic blood pressure response to AII) [9]: 6 mmHg
Average Change (systolic blood pressure response to AII) [10]: 7.5 mmHg
% Inhibition of AII vasopressor response [11]: 81%
Average Change (systolic blood pressure response to AII) [11]: 10 mmHg
% Inhibition of AII vasopressor response [12]: 52%
Average Change (systolic blood pressure response to AII) [12]: 25 mmHg
% Inhibition of AII vasopressor response [13]: 33%
Average Change (systolic blood pressure response to AII) [13]: 35 mmHg
% Inhibition of AII vasopressor response [14]: 38%
Average Change (systolic blood pressure response to AII) [14]: 32.5 mmHg
% Inhibition of AII vasopressor response [15]: 80%
Average Change (systolic blood pressure response to AII) [15]: 10 mmHg
% Inhibition of AII vasopressor response [16]: 65%
Average Change (systolic blood pressure response to AII) [16]: 17.5 mmHg
% Inhibition of AII vasopressor response [17]: 50%
Average Change (systolic blood pressure response to AII) [17]: 25 mmHg
% Inhibition of AII vasopressor response [18]: 63%
Average Change (systolic blood pressure response to AII) [18]: 18.5 mmHg
% Inhibition of AII vasopressor response [19]: 35%
Average Change (systolic blood pressure response to AII) [19]: 32.5 mmHg
% Inhibition of AII vasopressor response [20]: 30%
Average Change (systolic blood pressure response to AII) [20]: 35 mmHg
% Inhibition of AII vasopressor response [21]: 63%
Average Change (systolic blood pressure response to AII) [21]: 17.5 mmHg
% Inhibition of AII vasopressor response [22]: 47%
Average Change (systolic blood pressure response to AII) [22]: 25 mmHg
% Inhibition of AII vasopressor response [23]: 37%
Average Change (systolic blood pressure response to AII) [23]: 30 mmHg
% Inhibition of AII vasopressor response [24]: 53%
Average Change (systolic blood pressure response to AII) [24]: 22.5 mmHg
% Inhibition of AII vasopressor response [25]: 21%
Average Change (systolic blood pressure response to AII) [25]: 37.5 mmHg
% Inhibition of AII vasopressor response [26]: 0%
Average Change (systolic blood pressure response to AII) [26]: 47.5 mmHg

CCCCc1nc2ccc(C(O)C3CCCN(C)C3=O)cc2c(=O)n1Cc1ccc(-c2ccccc2-c2nn[nH]n2)cc1 (single isomer, unassigned; isomer 1) [Example 37, 2-Butyl-6-hydroxy(1-methyl-2-oxo-3-piperidinyl)methyl]-3-[[2'-(1H-tetrazol-5-yl)[1,1'-biphenyl]-4-yl]methyl]-4(3H)-quinazolinone isomer 1]
% Inhibition of AII vasopressor response [1]: 100%
Average Change (systolic blood pressure response to AII) [1]: 0 mmHg
% Inhibition of AII vasopressor response [2]: 100%
Average Change (systolic blood pressure response to AII) [2]: 0 mmHg
% Inhibition of AII vasopressor response [3]: 100%
Average Change (systolic blood pressure response to AII) [3]: 0 mmHg
% Inhibition of AII vasopressor response [4]: 91%
Average Change (systolic blood pressure response to AII) [4]: 2.5 mmHg
% Inhibition of AII vasopressor response [5]: 55%
Average Change (systolic blood pressure response to AII) [5]: 12.5 mmHg
% Inhibition of AII vasopressor response [6]: 64%
Average Change (systolic blood pressure response to AII) [6]: 10 mmHg
% Inhibition of AII vasopressor response [7]: 36%
Average Change (systolic blood pressure response to AII) [7]: 17.5 mmHg
% Inhibition of AII vasopressor response [8]: 92%
Average Change (systolic blood pressure response to AII) [8]: 2.5 mmHg
% Inhibition of AII vasopressor response [9]: 92%
Average Change (systolic blood pressure response to AII) [9]: 2.5 mmHg
% Inhibition of AII vasopressor response [10]: 85%
Average Change (systolic blood pressure response to AII) [10]: 5 mmHg
% Inhibition of AII vasopressor response [11]: 85%
Average Change (systolic blood pressure response to AII) [11]: 5 mmHg
% Inhibition of AII vasopressor response [12]: 66%
Average Change (systolic blood pressure response to AII) [12]: 11 mmHg
% Inhibition of AII vasopressor response [13]: 23%
Average Change (systolic blood pressure response to AII) [13]: 25 mmHg
% Inhibition of AII vasopressor response [14]: 0%
Average Change (systolic blood pressure response to AII) [14]: 32.5 mmHg
% Inhibition of AII vasopressor response [15]: 53%
Average Change (systolic blood pressure response to AII) [15]: 19 mmHg
% Inhibition of AII vasopressor response [16]: 29%
Average Change (systolic blood pressure response to AII) [16]: 28.5 mmHg
% Inhibition of AII vasopressor response [17]: 29%
Average Change (systolic blood pressure response to AII) [17]: 28.5 mmHg
% Inhibition of AII vasopressor response [18]: 13%
Average Change (systolic blood pressure response to AII) [18]: 35 mmHg
% Inhibition of AII vasopressor response [19]: 0%
Average Change (systolic blood pressure response to AII) [19]: 40 mmHg
% Inhibition of AII vasopressor response [21]: -6%
Average Change (systolic blood pressure response to AII) [21]: 47.5 mmHg
% Inhibition of AII vasopressor response [22]: 30%
Average Change (systolic blood pressure response to AII) [22]: 31.5 mmHg
% Inhibition of AII vasopressor response [23]: 11%
Average Change (systolic blood pressure response to AII) [23]: 40 mmHg
% Inhibition of AII vasopressor response [24]: 22%
Average Change (systolic blood pressure response to AII) [24]: 35 mmHg
% Inhibition of AII vasopressor response [25]: 22%
Average Change (systolic blood pressure response to AII) [25]: 35 mmHg
% Inhibition of AII vasopressor response [27]: 67%
Average Change (systolic blood pressure response to AII) [27]: 17.5 mmHg
% Inhibition of AII vasopressor response [28]: 65%
Average Change (systolic blood pressure response to AII) [28]: 18.5 mmHg
% Inhibition of AII vasopressor response [29]: 62%
Average Change (systolic blood pressure response to AII) [29]: 20 mmHg
% Inhibition of AII vasopressor response [30]: 67%
Average Change (systolic blood pressure response to AII) [30]: 17.5 mmHg
% Inhibition of AII vasopressor response [31]: 57%
Average Change (systolic blood pressure response to AII) [31]: 22.5 mmHg
% Inhibition of AII vasopressor response [32]: 43%
Average Change (systolic blood pressure response to AII) [32]: 30 mmHg
% Inhibition of AII vasopressor response [33]: 52%
Average Change (systolic blood pressure response to AII) [33]: 25 mmHg
% Inhibition of AII vasopressor response [34]: 40%
Average Change (systolic blood pressure response to AII) [34]: 30 mmHg
% Inhibition of AII vasopressor response [35]: 26%
Average Change (systolic blood pressure response to AII) [35]: 37 mmHg
% Inhibition of AII vasopressor response [36]: 40%
Average Change (systolic blood pressure response to AII) [36]: 30 mmHg
% Inhibition of AII vasopressor response [37]: 55%
Average Change (systolic blood pressure response to AII) [37]: 22.5 mmHg
% Inhibition of AII vasopressor response [38]: 35%
Average Change (systolic blood pressure response to AII) [38]: 32.5 mmHg
% Inhibition of AII vasopressor response [39]: 40%
Average Change (systolic blood pressure response to AII) [39]: 30 mmHg
% Inhibition of AII vasopressor response [40]: 35%
Average Change (systolic blood pressure response to AII) [40]: 32.5 mmHg
